Test systems include A549 NSCLC; SN12C renal; RXF 393 renal; SNB-75 CNS; HCT-116 colon; COLO 205 colon; UO-31 renal; BT-549 breast; T-47D breast; MCF7 breast.
Common to all, as to test: DTP human tumour cell line panel, 48 h

Results on eight molecules are retold here after PubChem BioAssay (NCI).

The structures appear in SMILES notation.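 Each compound was tested at five concentrations against cells in 96-well plates for 48 hours. Here, GI50 denotes the concentration required for 50% inhibition of growth. Definition used: TGI = concentration required for complete inhibition of growth.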 A value given as a limit tells only on which side of the number the result lay.

With `O=C(/C=C/c1cccc(O)c1)c1cccc(-n2cc(-c3ccccc3)[nH]c2=O)c1`, the GI50 with A549 NSCLC was 6390 nM; with SN12C renal, 3010 nM; in the experiment on RXF 393 renal it was 1830 nM; with SNB-75 CNS, 5700 nM; in the experiment with HCT-116 colon, 2220 nM; in the experiment on COLO 205 colon it was 1960 nM. Also, the GI50 in the experiment with UO-31 renal is 1990 nM; in the experiment with BT-549 breast, 3570 nM; in the experiment with T-47D breast, 3140 nM; with MCF7 breast, 2290 nM. The concentration for total growth inhibition (TGI) is 21800 nM with A549 NSCLC; 11300 nM with SN12C renal; 3510 nM in the experiment on RXF 393 renal; 18200 nM in the experiment on SNB-75 CNS; 3850 nM in the experiment with COLO 205 colon; 7020 nM with UO-31 renal. Moreover, the TGI came out at 9790 nM in the experiment with BT-549 breast, 12100 nM with T-47D breast and 6680 nM in the experiment with MCF7 breast.

Consider `O=[N+]([O-])c1ccc(N2CCOCC2)c2c1no[n+]2[O-]`, for which the GI50 was 1900 nM in the experiment on A549 NSCLC; 1200 nM with SN12C renal; 1490 nM in the experiment with RXF 393 renal; 822 nM in the experiment on SNB-75 CNS; 965 nM in the experiment on HCT-116 colon; 906 nM with COLO 205 colon. Besides, the GI50 in the experiment with UO-31 renal was 1420 nM; in the experiment with BT-549 breast, 1640 nM; in the experiment on T-47D breast, 1140 nM; in the experiment on MCF7 breast it was 543 nM. Besides, the concentration for total growth inhibition (TGI) with A549 NSCLC was found to be 6280 nM; in the experiment on SN12C renal it was 2850 nM; with RXF 393 renal, 4010 nM; with SNB-75 CNS it was 5560 nM; in the experiment with HCT-116 colon, 2240 nM; in the experiment with COLO 205 colon it was 2240 nM. Besides, the concentration for total growth inhibition (TGI) is 5070 nM with UO-31 renal, 6250 nM in the experiment with BT-549 breast, 4580 nM in the experiment with T-47D breast and 2960 nM in the experiment on MCF7 breast.

In the case of `CN(CCNCc1ccccn1)CCNCc1ccccn1`, the GI50 in the experiment on A549 NSCLC is 2950 nM; in the experiment on SN12C renal, 4330 nM; in the experiment with RXF 393 renal, 1940 nM; in the experiment with SNB-75 CNS, 3040 nM; in the experiment on HCT-116 colon, 2180 nM; in the experiment on COLO 205 colon it was 2530 nM. For the same molecule, the GI50 with UO-31 renal was 1730 nM; in the experiment with BT-549 breast, 1980 nM; with T-47D breast it was 3430 nM; with MCF7 breast, 3080 nM. The total growth inhibition concentration (TGI) with A549 NSCLC came to 8070 nM; in the experiment with SN12C renal, 17200 nM; in the experiment with RXF 393 renal it was 3810 nM; with SNB-75 CNS, 16000 nM; in the experiment with HCT-116 colon, 4700 nM; in the experiment on COLO 205 colon, 6020 nM. Also, the TGI in the experiment with UO-31 renal turned out to be 3900 nM; in the experiment with BT-549 breast, 4630 nM; with T-47D breast, 28000 nM; in the experiment with MCF7 breast, 10900 nM.

As to `Cc1cc[n+]2c(c1)-c1cc(C)cc[n+]1CC2`, the concentration for total growth inhibition (TGI) with A549 NSCLC was above 100000 nM; with SN12C renal it was above 100000 nM; with RXF 393 renal it was above 100000 nM; in the experiment on SNB-75 CNS, above 100000 nM; with HCT-116 colon, above 100000 nM; in the experiment with COLO 205 colon, above 86100 nM. In addition, the concentration for total growth inhibition (TGI) in the experiment with UO-31 renal, in the experiment on BT-549 breast, in the experiment with T-47D breast and with MCF7 breast was above 100000 nM in each case.

On to `CSc1nc2sc3c(c2c(=O)n1-c1ccc(C(C)C)cc1)CCC(=O)C3`, for which the GI50 in the experiment on A549 NSCLC is 3770 nM; with SN12C renal, 2450 nM; with RXF 393 renal it was 2210 nM; in the experiment with SNB-75 CNS, 2220 nM; in the experiment with HCT-116 colon it was 1940 nM; with COLO 205 colon it was 1890 nM. Further, the GI50 in the experiment on UO-31 renal is 1570 nM; in the experiment with BT-549 breast, 2940 nM; in the experiment with T-47D breast, 1810 nM; in the experiment with MCF7 breast it was 3140 nM. The TGI came to 20700 nM with A549 NSCLC; 6020 nM in the experiment with SN12C renal; 5370 nM in the experiment with RXF 393 renal; 5210 nM in the experiment on SNB-75 CNS; 3730 nM in the experiment with HCT-116 colon; 3630 nM with COLO 205 colon. Moreover, the concentration for total growth inhibition (TGI) in the experiment with UO-31 renal worked out at 3260 nM; in the experiment on BT-549 breast, 8360 nM; with T-47D breast it was 3740 nM; in the experiment on MCF7 breast it was 10600 nM.

For `NS(=O)(=O)c1ccc(-c2cc3ccncc3cc2OCc2ccccc2)cc1`, the GI50 is 8590 nM in the experiment on A549 NSCLC; 24900 nM with SN12C renal; 7160 nM in the experiment on RXF 393 renal; 5270 nM in the experiment on SNB-75 CNS; above 14800 nM in the experiment on HCT-116 colon; above 21200 nM in the experiment with COLO 205 colon. In addition, the GI50 is 14500 nM in the experiment on UO-31 renal, 6010 nM in the experiment with BT-549 breast, above 19400 nM with T-47D breast and 14500 nM in the experiment on MCF7 breast. Moreover, the total growth inhibition concentration (TGI) with A549 NSCLC, with SN12C renal, in the experiment on RXF 393 renal, in the experiment on SNB-75 CNS, with HCT-116 colon and in the experiment with COLO 205 colon was above 25000 nM each time. The TGI with UO-31 renal, in the experiment with BT-549 breast, in the experiment with T-47D breast and in the experiment with MCF7 breast was above 25000 nM throughout.

Take `Oc1cccc2ccc(N/N=C/c3cc(CN4CCOCC4)c(O)c4ncccc34)nc12`: the GI50 was 24.5 nM in the experiment with A549 NSCLC; 34.8 nM with SN12C renal; 48 nM with RXF 393 renal; 25.3 nM in the experiment on SNB-75 CNS; 22.3 nM with HCT-116 colon; 117 nM in the experiment on COLO 205 colon. The 50% growth inhibitory concentration (GI50) in the experiment with UO-31 renal is 12.4 nM; with BT-549 breast, 36.3 nM; in the experiment on T-47D breast, 27.4 nM; in the experiment on MCF7 breast, 21 nM. Moreover, the TGI in the experiment on A549 NSCLC was determined as 1230 nM; with SN12C renal, 7820 nM; in the experiment with RXF 393 renal it was 1660 nM; in the experiment on SNB-75 CNS, 2000 nM; in the experiment on HCT-116 colon, 2770 nM; in the experiment on COLO 205 colon, 1600 nM. In addition, the total growth inhibition concentration (TGI) in the experiment on UO-31 renal came to 1240 nM; in the experiment with BT-549 breast, 2780 nM; in the experiment on T-47D breast, 682 nM; in the experiment with MCF7 breast, 1540 nM.

As to `COC1C(O)C(CO)OC(OC2C(O)COC(OC3C(C)OC(OC4C(O[C@H]5CC[C@@]6(C)C(CC=C7[C@H]6CCC68C(=O)O[C@@](C)(CCCC(C)C)[C@H]6[C@@H](OC(C)=O)C[C@@]78C)C5(C)C)OCC(OS(=O)(=O)O)C4O)C(OC4OCC(O)C(O)C4O)C3O)C2O)C1O` (some centres undefined), the GI50 in the experiment with A549 NSCLC was 56.8 nM; in the experiment on SN12C renal, 110 nM; in the experiment on RXF 393 renal it was 184 nM; in the experiment on SNB-75 CNS, 214 nM; in the experiment on HCT-116 colon, 88.6 nM; in the experiment with COLO 205 colon, 73.8 nM. The GI50 in the experiment with UO-31 renal is 200 nM; in the experiment on BT-549 breast it was 226 nM; in the experiment with T-47D breast, 200 nM; with MCF7 breast, 166 nM. The TGI was found to be 209 nM with A549 NSCLC; 300 nM in the experiment with SN12C renal; 660 nM with RXF 393 renal; 465 nM with SNB-75 CNS; 229 nM in the experiment with HCT-116 colon; 286 nM with COLO 205 colon. The TGI was 746 nM in the experiment on UO-31 renal, 523 nM in the experiment with BT-549 breast, 529 nM in the experiment on T-47D breast and 431 nM in the experiment on MCF7 breast.

By GI50 is commonly meant the concentration that inhibits growth by half. One may read the TGI as the concentration at which net growth stops. Read a low TGI as more potent growth arrest.
